Experimental findings from US20210205196A1, “PRESERVED COMPOSITIONS” (Conopco, Inc., d/b/a UNILEVER, priority 2018, published 2021) are described below.

In experiment [1] the test system is Gram Negative non-fermenting bacteria: Pseudomonas aeruginosa, Burkholderia cepacia, Strenotrophomonas sp. In words: Modified Ph. Eur. 5.1.3 microbial challenge test in shampoo, Pool 1. The experiment is classed as cell-based.
The test system of experiment [2] is Gram Negative fermenting bacteria: Enterobacter cloacae, Klebsiella sp. In words: Modified Ph. Eur. 5.1.3 microbial challenge test in shampoo, Pool 2. It is filed as cell-based.
The mark [3] stands for this setting: 0.5% (w/w) acid in shampoo base, pH 5, 7 days.
[4] abbreviates: 0.5% (w/w) acid in shampoo base, pH 5, 14 days (reinoculated at 7 days).
The mark [5] stands for this setting: 0.5% (w/w) acid in shampoo base, pH 5, 21 days (reinoculated at 7 and 14 days).
Setting [6] is: 0.5% (w/w) acid in shampoo base, pH 5, 28 days (reinoculated at 7 and 14 days).
Setting [7] is: 1.0% (w/w) acid in shampoo base, pH 5, 7 days.
The mark [8] stands for this setting: 1.0% (w/w) acid in shampoo base, pH 5, 14 days (reinoculated at 7 days).
[9] abbreviates: 1.0% (w/w) acid in shampoo base, pH 5, 21 days (reinoculated at 7 and 14 days).
The mark [10] stands for this setting: 1.0% (w/w) acid in shampoo base, pH 5, 28 days (reinoculated at 7 and 14 days).

Where only a bound is given, the exact number is not on record here.

With `O=C(O)CC(O)(CC(=O)O)C(=O)O` [Citric acid, citric acid], the “Microbial Log reduction” value in experiment [1] (setting [3]) is recorded as above 5.61 log; in experiment [1] (setting [4]), 3.84 log; in experiment [1] (setting [5]) it was above 5.74 log; in experiment [1] (setting [6]), above 5.74 log; in experiment [1] (setting [7]), above 5.61 log; in experiment [1] (setting [8]), above 5.56 log. Further, the “Microbial Log reduction” value in experiment [1] (setting [9]) was above 5.74 log; in experiment [1] (setting [10]), above 5.74 log; in experiment [2] (setting [3]), 4.88 log; in experiment [2] (setting [4]), above 5.69 log; in experiment [2] (setting [5]), above 5.80 log; in experiment [2] (setting [6]), above 5.80 log. Moreover, the “Microbial Log reduction” value is given as 4.97 log in experiment [2] (setting [7]), above 5.69 log in experiment [2] (setting [8]), above 5.80 log in experiment [2] (setting [9]) and above 5.80 log in experiment [2] (setting [10]).

As to `C=C(CC(=O)O)C(=O)O` [Itaconic acid], the “Microbial Log reduction” value in experiment [1] (setting [3]) is above 5.68 log; in experiment [1] (setting [4]), above 5.56 log; in experiment [1] (setting [5]), above 5.74 log; in experiment [1] (setting [6]), above 5.74 log; in experiment [1] (setting [7]) it was above 5.61 log; in experiment [1] (setting [8]), above 5.56 log. For the same compound, the “Microbial Log reduction” value in experiment [1] (setting [9]) was above 5.74 log; in experiment [1] (setting [10]) it was above 5.74 log; in experiment [2] (setting [3]), above 5.88 log; in experiment [2] (setting [4]) it was above 5.69 log; in experiment [2] (setting [5]), above 5.80 log; in experiment [2] (setting [6]), above 5.80 log. Besides, the “Microbial Log reduction” value is above 5.88 log in experiment [2] (setting [7]), above 5.69 log in experiment [2] (setting [8]), above 5.80 log in experiment [2] (setting [9]) and above 5.80 log in experiment [2] (setting [10]).

In the case of `CC(O)C(=O)O` (stereo not drawn) [Lactic acid, lactic acid], the “Microbial Log reduction” value in experiment [1] (setting [3]) is on record as above 5.61 log; in experiment [1] (setting [4]), above 5.56 log; in experiment [1] (setting [5]) it was above 5.74 log; in experiment [1] (setting [6]), above 5.74 log; in experiment [1] (setting [7]) it was above 5.61 log; in experiment [1] (setting [8]), above 5.56 log. For the same compound, the “Microbial Log reduction” value was above 5.74 log in experiment [1] (setting [9]); above 5.74 log in experiment [1] (setting [10]); 3.93 log in experiment [2] (setting [3]); above 5.69 log in experiment [2] (setting [4]); above 5.80 log in experiment [2] (setting [5]); above 5.80 log in experiment [2] (setting [6]). Moreover, the “Microbial Log reduction” value is on record as above 5.88 log in experiment [2] (setting [7]), above 5.69 log in experiment [2] (setting [8]), above 5.80 log in experiment [2] (setting [9]) and above 5.80 log in experiment [2] (setting [10]).
